Experimental data from ChEMBL document CHEMBL1135151, “Preparation, characterization, molecular modeling and in vitro activity of paclitaxel-cyclodextrin complexes” (2002).

Experiments:
Type in all cases: functional, Homo sapiens
DU-145 [1] = experiment: Tested for in vitro activity against DU 145 cells at PTX dilution factor 1:50, expressed as percentage of cellular survival as a function of drug dilution
DU-145 [2] = experiment: Tested for in vitro activity against DU 145 cells at PTX dilution factor 1:500, expressed as percentage of cellular survival as a function of drug dilution
DU-145 [3] = experiment: Tested for in vitro activity against DU 145 cells at PTX dilution factor 1:100, expressed as percentage of cellular survival as a function of drug dilution
DU-145 [4] = experiment: Tested for in vitro activity against DU 145 cells at PTX dilution factor 1:1000, expressed as percentage of cellular survival as a function of drug dilution

Structure (SMILES) | Survival (DU-145 [1]) | Survival (DU-145 [2]) | Survival (DU-145 [3]) | Survival (DU-145 [4])
COCC1O[C@H]2OC3C(COC)O[C@@H](OC4C(COC)O[C@@H](OC5C(COC)O[C@@H](OC6C(COC)O[C@@H](OC7C(COC)O[C@@H](OC8C(COC)O[C@@H](OC1[C@@H](OC)[C@@H]2OC)[C@@H](OC)[C@H]8OC)[C@@H](OC)[C@H]7OC)[C@@H](OC)[C@H]6OC)[C@@H](OC)[C@H]5OC)[C@@H](OC)[C@H]4OC)[C@@H](OC)[C@H]3OC (stereo partly drawn) | 79.7% | 87% | 85.5% | 90.1%
CC(=O)O[C@H]1C(=O)[C@@]2(C)C([C@H](OC(=O)c3ccccc3)[C@]3(O)C[C@H](OC(=O)[C@H](O)[C@@H](NC(=O)c4ccccc4)c4ccccc4)C(C)=C1C3(C)C)[C@]1(OC(C)=O)CO[C@@H]1C[C@@H]2O.COCC1O[C@H]2OC3C(COC)O[C@@H](OC4C(COC)O[C@@H](OC5C(COC)O[C@@H](OC6C(COC)O[C@@H](OC7C(COC)O[C@@H](OC8C(COC)O[C@@H](OC1[C@@H](OC)[C@@H]2OC)[C@@H](OC)[C@H]8OC)[C@@H](OC)[C@H]7OC)[C@@H](OC)[C@H]6OC)[C@@H](OC)[C@H]5OC)[C@@H](OC)[C@H]4OC)[C@@H](OC)[C@H]3OC (stereo partly drawn) | 43.2% | 68.7% | 61.3% | 69.3%
OC[C@H]1O[C@@H]2O[C@H]3[C@H](O)[C@@H](O)[C@@H](O[C@H]4[C@H](O)[C@@H](O)[C@@H](O[C@H]5[C@H](O)[C@@H](O)[C@@H](O[C@H]6[C@H](O)[C@@H](O)[C@@H](O[C@H]7[C@H](O)[C@@H](O)[C@@H](O[C@H]8[C@H](O)[C@@H](O)[C@@H](O[C@H]1[C@H](O)[C@H]2O)O[C@@H]8CO)O[C@@H]7CO)O[C@@H]6CO)O[C@@H]5CO)O[C@@H]4CO)O[C@@H]3CO [BETADEX] | 96.4% | 96.4% | 96.6% | 96.8%
CC(=O)O[C@H]1C(=O)[C@@]2(C)C([C@H](OC(=O)c3ccccc3)[C@]3(O)C[C@H](OC(=O)[C@H](O)[C@@H](NC(=O)c4ccccc4)c4ccccc4)C(C)=C1C3(C)C)[C@]1(OC(C)=O)CO[C@@H]1C[C@@H]2O.OCC1O[C@H]2OC3C(CO)O[C@@H](OC4C(CO)O[C@@H](OC5C(CO)O[C@@H](OC6C(CO)O[C@@H](OC7C(CO)O[C@@H](OC8C(CO)O[C@@H](OC1[C@@H](O)[C@@H]2O)[C@@H](O)[C@H]8O)[C@@H](O)[C@H]7O)[C@@H](O)[C@H]6O)[C@@H](O)[C@H]5O)[C@@H](O)[C@H]4O)[C@@H](O)[C@H]3O (stereo partly drawn) | 12.2% | 23.1% | 22.3% | 24.2%
CC(=O)O[C@H]1C(=O)[C@@]2(C)C([C@H](OC(=O)c3ccccc3)[C@]3(O)C[C@H](OC(=O)[C@H](O)[C@@H](NC(=O)c4ccccc4)c4ccccc4)C(C)=C1C3(C)C)[C@]1(OC(C)=O)CO[C@@H]1C[C@@H]2O.COCC1O[C@H]2OC3C(COC)O[C@@H](OC4C(COC)O[C@@H](OC5C(COC)O[C@@H](OC6C(COC)O[C@@H](OC7C(COC)O[C@@H](OC8C(COC)O[C@@H](OC1[C@@H](O)[C@@H]2OC)[C@@H](OC)[C@H]8O)[C@@H](OC)[C@H]7O)[C@@H](O)[C@H]6OC)[C@@H](OC)[C@H]5O)[C@@H](OC)[C@H]4O)[C@@H](OC)[C@H]3O (stereo partly drawn) | 35.2% | 51.1% | 46.3% | 61.3%
CC(=O)O[C@H]1C(=O)[C@@]2(C)[C@H]([C@H](OC(=O)c3ccccc3)[C@]3(O)C[C@H](OC(=O)[C@H](O)[C@@H](NC(=O)c4ccccc4)c4ccccc4)C(C)=C1C3(C)C)[C@]1(OC(C)=O)CO[C@@H]1C[C@@H]2O [PACLITAXEL] | 11.6% | 43.3% | 12.1% | 46%
COCC1O[C@H]2OC3C(COC)O[C@@H](OC4C(COC)O[C@@H](OC5C(COC)O[C@@H](OC6C(COC)O[C@@H](OC7C(COC)O[C@@H](OC8C(COC)O[C@@H](OC1[C@@H](O)[C@@H]2OC)[C@@H](OC)[C@H]8O)[C@@H](OC)[C@H]7O)[C@@H](O)[C@H]6OC)[C@@H](OC)[C@H]5O)[C@@H](OC)[C@H]4O)[C@@H](OC)[C@H]3O (stereo partly drawn) | 88.9% | 90.2% | 90.6% | 91.5%
